# pIC50: −log10 of the molar value. Calls of active or inactive are those of the source. The calls are words filed in the database; no cut-off is given here.
# Experiments:
# MDA-MB-231 [1] = assay: Antiproliferative activity against human MDA-MB-231 cells assessed as reduction in cell viability measured after 48 hrs under dark condition by MTT assay; assay type: functional, cell-based; settings: MDA-MB-231, 48 h
# MDA-MB-231 [2] = assay: Antiproliferative activity against human MDA-MB-231 cells assessed as reduction in cell viability measured after 48 hrs under light condition by MTT assay; assay type: functional, cell-based; settings: MDA-MB-231, 48 h
# [3] = Drug uptake in human MDA-MB-231 cells at 20 uM measured after 6 hrs by confocal microscopy based analysis; assay type: ADME, cell-based; settings: mda-mb-231, 6 h
# [4] = Drug uptake in human MDA-MB-231 cells at 20 uM measured after 24 hrs by confocal microscopy based analysis; assay type: ADME, cell-based; settings: mda-mb-231, 24 h
# MDA-MB-231 [5] = assay: Induction of autophagy in human MDA-MB-231 cells assessed as increase in calcium ion release in cytoplasm by measuring blue fluorescence at 10 uM incubated for 3 hrs followed by dark incubation by Fura-2 dye based confocal microscopy based analysis; assay type: functional, cell-based
# MDA-MB-231 [6] = assay: Antiproliferative activity against human MDA-MB-231 cells assessed as reduction in cell viability measured after 48 hrs under light condition in presence of chloroquine by MTT assay; assay type: functional, cell-based; settings: MDA-MB-231, 48 h
# MDA-MB-231 [7] = assay: Antiproliferative activity against human MDA-MB-231 cells assessed as reduction in cell viability measured after 48 hrs under dark condition in presence of chloroquine by MTT assay; assay type: functional, cell-based; settings: MDA-MB-231, 48 h
# [8] = Selectivity ratio of IC50 for human MDA-MB-231 cells assessed as reduction in cell viability measured after 48 hrs under dark condition in presence of chloroquine to IC50 human MDA-MB-231 cells assessed as reduction in cell viability measured after 48 hrs under light condition in presence of chloroquine; assay type: functional
# MDA-MB-231 [9] = assay: Induction of ROS response in human MDA-MB-231 cells by measuring green fluorescence at 10 uM incubated for 3 hrs dark condition by H2DCFDA staining based confocal microscopy analysis; assay type: functional, cell-based
# [10] = Selectivity ratio of IC50 for human MDA-MB-231 cells assessed as reduction in cell viability measured after 48 hrs under dark condition to IC50 human MDA-MB-231 cells assessed as reduction in cell viability measured after 48 hrs under light condition; assay type: functional
# MDA-MB-231 [11] = assay: Induction of ROS response in human MDA-MB-231 cells by measuring green fluorescence at 10 uM incubated for 3 hrs under light 24J/cm2 irradiation by H2DCFDA staining based confocal microscopy analysis; assay type: functional, cell-based
# MDA-MB-231 [12] = assay: Induction of autophagy in human MDA-MB-231 cells assessed as increase in green fluorescence at 20 uM under light irradiation by confocal microscopy based analysis; assay type: functional, cell-based
# [13] = Drug localization in lysosome of human MDA-MB-231 cells assessed as colocalization at 20 uM incubated for 3 hrs by MDH staining based confocal microscopy analysis; assay type: ADME, subcellular; settings: mda-mb-231, 3 h
# [14] = Drug localization in lysosome of human MDA-MB-231 cells assessed as colocalization at 20 uM incubated for 3 hrs by lyso-tracker blue staining based confocal microscopy analysis; assay type: ADME, subcellular; settings: mda-mb-231, 3 h
SMILES,pIC50 (MDA-MB-231 [1]),pIC50 (MDA-MB-231 [2]),Drug uptake [3],Drug uptake [4],Activity (MDA-MB-231 [5]),pIC50 (MDA-MB-231 [6]),pIC50 (MDA-MB-231 [7]),Ratio IC50 [8],Activity (MDA-MB-231 [9]),Ratio IC50 [10],Activity (MDA-MB-231 [11]),Activity (MDA-MB-231 [12]),Drug uptake [13],Drug uptake [14]
CCN(CC)CCCC(C)Nc1ccnc2cc(Cl)ccc12 (centres undefined) [CHLOROQUINE],< 4.30,< 4.30,,,,,,,,,,,,
CO[C@H]1C[C@@H]2CC[C@@H](C)[C@@](O)(O2)C(=O)C(=O)N2CCCC[C@H]2C(=O)O[C@H]([C@H](C)C[C@@H]2CC[C@@H](O)[C@H](OC)C2)CC(=O)[C@H](C)/C=C(\C)[C@@H](O)[C@@H](OC)C(=O)[C@H](C)C[C@H](C)/C=C/C=C/C=C/1C [SIROLIMUS],4.95,4.85,,,,,,,,,,,,
CCCCn1c2ccc(/C=C/c3ccc(N(c4ccccc4)c4ccccc4)cc3)cc2c2cc(C3=C4C=CC=[N+]4[B-](F)(F)n4cccc43)ccc21,4.88,6.02,Active,Active,Active,5.93,4.65,>19.33,Active,13.84,Active,,,
CCCCn1c2ccccc2c2cc(/C=C/c3ccc4c(c3)c3cc(C5=C6C=CC=[N+]6[B-](F)(F)n6cccc65)ccc3n4CCCC)ccc21,< 4.30,4.77,Active,Active,Active,5.25,< 4.30,>8.97,Active,>2.9,Active,Active,Active,Active

# From ChEMBL document CHEMBL6074703, “BODIPYS Based Fluorescent Markers To Monitor Autophagic Lysosomes and Lipid Droplets in TNBC” (ACS Med Chem Lett, 2024)
